# In patent publication US9603859B2, “Methods and products for increasing the rate of healing of tissue wounds” (BRIGHAM YOUNG UNIVERSITY, priority 2011, dated 2017):
# Assays:
# primary human MSC cells = assay: Wound healing array q-PCR gene expression in mesenchymal stem cells; format: cell-based; conditions: 8 hours treatment
# Source text: To determine the role of synthetic Ceragenins CSA-13, 44 and 90 in wound healing using mesenchymal stem cells (MSC), targeted mRNA panels from SABiosciences, and primary cells from Lonza were selected. Cells were purchased from Lonza.com and used fresh for each test using recommended media and culture conditions. After treatment, mRNA was isolated using Qiagen RNeasy Mini Kit®, and quantified using a NanoDrop 2000® by UV at 260 nm and 260/280 ratio for purity. cDNA was made using a First Strand Kit® from SABiosciences and processed for real time PCR using a kit from the same company for selected analysis of wound healing pathways. Results from q-PCR were uploaded to the SABiosciences site and to Ingenuity.com web site for analysis and pathway mapping. SABiosciences wound healing array plates (Cat# PAHS-121) and innate/acquired immune response plates (PAHS-052) were used. These arrays are fully validated when used as recommended. On day 1, primary human MSC cells were plated at 200,000 cells/well using 6-well plates with 3 ml of recommended media—hMSC Basal Medium+BulletKit (50 ml Growth Supplement, 10 ml L-Glutamine and 0.5 ml Gentamicin Sulfate Amphotercin-B) for 24 hours. Only early passages of cells were used, and never from frozen stock. On day 2, cells were treated with compounds dissolved in DMSO diluted 1:1000 or more to avoid effects of the solvent. Final testing concentration for CSA-13 was 5.0 μM. Treatment lasted 8 hours, and was followed by RNA isolation using QIAGEN RNeasy Mini Kit® (74104). RNA was measured at 260/280 nm using a NanoDrop 2000® and normalized to 2.4 ng per well, cDNA preparation was done using QIAGEN First Strand kit 330401. q-PCR was run as absolute quantification and threshold set at 0.1 units. Dendritic cells were plated at 500,000 cells/well using 24-well plate with 500 ul of Lonza LGM-3 Complete Growth Medium with and without compound. Treatment lasted 8 hours, and was followed by RNA isolation using QIAGEN RNeasy Mini Kit® (74104). RNA was measured at 260/280 nm using NanoDrop2000® and normalized to 2.4 ng per well, cDNA preparation was done using QIAGEN First Strand kit 330401. PCR was run as absolute quantification and threshold set at 0.1 units. For the wound healing array, strong upregulation of growth factors such as HB-EGF and cell migration factors such as MMP1 and CXCL2 were found, indicating a clear potential for CSA as a modulator of wound healing. Additional gene expression data is provided in Tables 1-3 for CSA-13, 44, and 90, respectively.
# [1] = tested on: fungal infection of the skin (summer itch); assay: Treatment of fungal infection of the skin (summer itch) in a show mare; format: in vivo; conditions: horse; 0.04% solution in water twice daily
# Source text: A show mare developed an uncontrollable fungal infection of the skin. This malady is commonly referred to as summer itch. A 0.04% solution of CSA-44 in water was used twice daily for 3 weeks resulting in complete regrowth of normal skin and hair. Normal treatment time periods for this problem usually range from 3 to 4 months.
# [2] = tested on: laceration to left hind cannon region; assay: Treatment of laceration to left hind cannon region of a broodmare; format: in vivo; conditions: horse; 0.04% solution in water twice daily; no wrap
# Protocol: A reining broodmare in Texas was involved in an accident resulting in a laceration to her left hind cannon region. The wound was 3 inches in length and 2 inches wide. The laceration extended all the way to the cannon bone, exposing the periosteum. This wound was also treated with a 0.04% solution of CSA-44 in water twice daily. No wrap was applied (i.e., no immobilization). The wound closed in 11 days with normal hair growth at 30 days. This type of wound would usually require aggressive wraps for 3 months with the possibility of other procedures being necessary for the excessive granulation tissue that commonly develops.
# [3] = tested on: torn right front shoulder wound; assay: Treatment of torn right front shoulder wound in a horse; format: in vivo; conditions: 0.04% solution in water sprayed twice a day
# Protocol: This wound occurs commonly in horses and usually takes 3 to 6 months to heal. Typically this wound will result in a significant loss of muscle in the region. This wound was treated twice a day with a 0.04% solution of CSA-44 in water. The tissue treatment composition was applied by spraying sufficient composition to wet the entire surface of the wound.
# [4] = tested on: scratches (fungal infection of the lower extremities with secondary bacterial infection); assay: Treatment of extreme case of scratches in a horse; format: in vivo
# Source text: A horse with an extreme case of scratches was successfully healed using CSA. Scratches is a fungal infection of the lower extremities in horses. This infection usually results in not only a fungal but also a secondary bacterial infection. In this case, the horse developed severe and debilitating granulation tissue of the ankle resulting in poor mobility due to cracking and bleeding. […] The chronic infection persisted for over two years despite the multiple attempts to treat with an antimicrobial. Due to the debilitating wound the horse was slated for slaughter. […] Normal hair growth and tissue was present in 4 weeks.
# [5] = tested on: chronic non-healing oral cutaneous fistula; assay: Treatment of chronic non-healing oral cutaneous fistula in a horse; format: in vivo
# Source text: A horse with a chronic non-healing oral cutaneous fistula was first treated with two prior art treatments with no success. The first treatment was with an aqueous spray of Vetericyn (0.007% hypochlorite) for a period of 7 days. […]
smiles,measurement,setting,value
CCCCCCCCNCCC[C@@H](C)[C@H]1CC[C@H]2[C@@H]3[C@H](OCCCN)C[C@@H]4C[C@H](OCCCN)CC[C@]4(C)[C@H]3C[C@H](OCCCN)[C@]12C [CSA-13],Fold Regulation ANGPT1,primary human MSC cells; CSA-13 at 5.0 μM,−2.0046
same,Fold Regulation CCL7,primary human MSC cells; CSA-13 at 5.0 μM,1.6632
same,Fold Regulation CSF2,primary human MSC cells; CSA-13 at 5.0 μM,−2.4867
same,Fold Regulation CXCL1,primary human MSC cells; CSA-13 at 5.0 μM,1.6181
same,Fold Regulation CXCL2,primary human MSC cells; CSA-13 at 5.0 μM,4.873
same,Fold Regulation CXCL5,primary human MSC cells; CSA-13 at 5.0 μM,2.0582
same,Fold Regulation F3,primary human MSC cells; CSA-13 at 5.0 μM,−3.3945
same,Fold Regulation F13A1,primary human MSC cells; CSA-13 at 5.0 μM,2.0916
same,Fold Regulation FGF2,primary human MSC cells; CSA-13 at 5.0 μM,−1.633
same,Fold Regulation FGF10,primary human MSC cells; CSA-13 at 5.0 μM,3.8659
same,Fold Regulation HBEGF,primary human MSC cells; CSA-13 at 5.0 μM,3.255
same,Fold Regulation IL2,primary human MSC cells; CSA-13 at 5.0 μM,1.865
same,Fold Regulation IL4,primary human MSC cells; CSA-13 at 5.0 μM,−1.9944
same,Fold Regulation IL6,primary human MSC cells; CSA-13 at 5.0 μM,3.1692
same,Fold Regulation IL10,primary human MSC cells; CSA-13 at 5.0 μM,−1.6166
same,Fold Regulation ITGA2,primary human MSC cells; CSA-13 at 5.0 μM,3.5659
same,Fold Regulation ITGB3,primary human MSC cells; CSA-13 at 5.0 μM,−1.5243
same,Fold Regulation MMP1,primary human MSC cells; CSA-13 at 5.0 μM,4.4172
same,Fold Regulation PLAT,primary human MSC cells; CSA-13 at 5.0 μM,−2.1487
same,Fold Regulation PLAU,primary human MSC cells; CSA-13 at 5.0 μM,1.7849
same,Fold Regulation PLAUR,primary human MSC cells; CSA-13 at 5.0 μM,1.6286
same,Fold Regulation PTGS2,primary human MSC cells; CSA-13 at 5.0 μM,3.3333
same,Fold Regulation VEGFA,primary human MSC cells; CSA-13 at 5.0 μM,1.7274
same,Fold Regulation VTN,primary human MSC cells; CSA-13 at 5.0 μM,2.0612
CCCCCCCCOC(=O)CC[C@@H](C)[C@H]1CC[C@H]2[C@@H]3[C@H](OC(=O)CCN)C[C@@H]4C[C@H](OC(=O)CCN)CC[C@]4(C)[C@H]3C[C@H](OC(=O)CCN)[C@]12C [CSA-44],treatment time to complete regrowth of normal skin and hair,[1],3 weeks
same,time of normal hair growth,[2],30 days
same,time until wound closed,[2],11 days
same,muscle loss after healing,[3],without any apparent muscle loss
same,time until wound closed and completely healed,"[3]; wound 4 x 6 inches, 3 inches deep",28 days
same,Fold Regulation ACTA2,primary human MSC cells,−1.9377
same,Fold Regulation ACTB,primary human MSC cells,−1.7981
same,Fold Regulation CCL2,primary human MSC cells,−3.1925
same,Fold Regulation CDH1,primary human MSC cells,−2.7158
same,Fold Regulation COL1A2,primary human MSC cells,1.5483
same,Fold Regulation COL3A1,primary human MSC cells,1.7385
same,Fold Regulation COL4A3,primary human MSC cells,−2.4845
same,Fold Regulation CTGF,primary human MSC cells,−24.5295
same,Fold Regulation CTSK,primary human MSC cells,1.6388
same,Fold Regulation CTSL2,primary human MSC cells,1.7924
same,Fold Regulation EGFR,primary human MSC cells,1.5364
same,Fold Regulation FGF7,primary human MSC cells,4.84
same,Fold Regulation HGF,primary human MSC cells,3.1098
same,Fold Regulation IGF1,primary human MSC cells,1.6877
same,Fold Regulation ITGB6,primary human MSC cells,1.6323
same,Fold Regulation MMP9,primary human MSC cells,1.5543
same,Fold Regulation SERPINE1,primary human MSC cells,−2.9618
same,Fold Regulation TGFBR3,primary human MSC cells,−2.0462
same,Fold Regulation TIMP1,primary human MSC cells,1.6126
same,Fold Regulation WISP1,primary human MSC cells,−1.9722
same,Fold Regulation ANGPT1,primary human MSC cells; CSA-13 at 5.0 μM,−2.0857
same,Fold Regulation CCL7,primary human MSC cells; CSA-13 at 5.0 μM,2.1961
same,Fold Regulation CSF2,primary human MSC cells; CSA-13 at 5.0 μM,−1.8551
same,Fold Regulation CXCL2,primary human MSC cells; CSA-13 at 5.0 μM,14.3964
same,Fold Regulation F13A1,primary human MSC cells; CSA-13 at 5.0 μM,2.0963
same,Fold Regulation FGF2,primary human MSC cells; CSA-13 at 5.0 μM,−1.6016
same,Fold Regulation FGF10,primary human MSC cells; CSA-13 at 5.0 μM,2.2811
same,Fold Regulation HBEGF,primary human MSC cells; CSA-13 at 5.0 μM,3.5463
same,Fold Regulation IL2,primary human MSC cells; CSA-13 at 5.0 μM,2.1928
same,Fold Regulation IL6,primary human MSC cells; CSA-13 at 5.0 μM,4.0387
same,Fold Regulation IL10,primary human MSC cells; CSA-13 at 5.0 μM,−2.0128
same,Fold Regulation ITGA2,primary human MSC cells; CSA-13 at 5.0 μM,16.0648
same,Fold Regulation ITGB3,primary human MSC cells; CSA-13 at 5.0 μM,−1.5802
same,Fold Regulation MMP1,primary human MSC cells; CSA-13 at 5.0 μM,68.9688
same,Fold Regulation PLAT,primary human MSC cells; CSA-13 at 5.0 μM,−1.754
same,Fold Regulation PLAU,primary human MSC cells; CSA-13 at 5.0 μM,1.6131
same,Fold Regulation PLAUR,primary human MSC cells; CSA-13 at 5.0 μM,2.5454
same,Fold Regulation PTGS2,primary human MSC cells; CSA-13 at 5.0 μM,48.6907
same,Fold Regulation VEGFA,primary human MSC cells; CSA-13 at 5.0 μM,4.6052
same,time until normal hair growth and tissue present,[4]; 0.04% in water sprayed twice daily,4 weeks
same,outcome of wound treatment,"[4]; CSA-44 0.04% in water sprayed twice daily for four weeks, comparators before CSA",successfully treated
same,time to closure of the fistula and healthy tissue,[5]; 0.04% CSA-44 in water sprayed once daily,7 days
same,outcome of wound treatment,"[5]; Vetericyn (0.007% hypochlorite) aqueous spray 7 days, Furacin Salve daily 5 days, 0.04% CSA-44 in water sprayed once daily 7 days",successfully treated
